# Reference: patent publication US6358885B1, “Substituted phenylheterocyclic herbicides” (Mississippi State University, priority 1992, dated 2002)
# Columns and labels:
# Assay in all cases: Test B preemergence/postemergence greenhouse plant response rating 0 to 10
# barley = assay type: in vivo, Hordeum vulgare; conditions: for Plant response rating, Barley: 0 to 10 scale
# Summary of the method: (§1)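 Test chemicals were sprayed onto freshly planted seed and, concurrently, onto young plants between the one and four leaf stage. After a twelve- to sixteen-day greenhouse period, each species was visually compared with untreated controls.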
# rape = assay type: in vivo, Brassica napus; conditions: for Plant response rating, Rape: 0 to 10 scale
# Summary of the method: as §1
# sugar beet = assay type: in vivo, Beta vulgaris; conditions: for Plant response rating, Sugar beet: 0 to 10 scale
# Summary of the method: as §1
# wheat = assay type: in vivo, Triticum aestivum; conditions: for Plant response rating, Wheat: 0 to 10 scale
# Summary of the method: as §1
# barnyardgrass = assay type: in vivo, Echinochloa crus-galli; conditions: for Plant response rating, Barnyardgrass: 0 to 10 scale
# Summary of the method: as §1
# rice = assay type: in vivo, Oryza sativa; conditions: for Plant response rating, Rice: 0 to 10 scale
# Summary of the method: as §1
# chickweed = assay type: in vivo, Stellaria media; conditions: for Plant response rating, Chickweed: 0 to 10 scale
# Summary of the method: as §1
# wild buckwheat = assay type: in vivo, Polygonum convolvulus; conditions: for Plant response rating, Wild buckwheat: 0 to 10 scale
# Summary of the method: as §1
# velvetleaf = assay type: in vivo, Abutilon theophrasti; conditions: for Plant response rating, Velvetleaf: 0 to 10 scale
# Summary of the method: as §1
# blackgrass = assay type: in vivo, Alopecurus myosuroides; conditions: for Plant response rating, Blackgrass: 0 to 10 scale
# Summary of the method: as §1
# giant foxtail = assay type: in vivo, Setaria faberii; conditions: for Plant response rating, Giant foxtail: 0 to 10 scale
# Summary of the method: as §1
# cotton = assay type: in vivo, Gossypium hirsutum; conditions: for Plant response rating, Cotton: 0 to 10 scale
# Summary of the method: as §1
# soybean = assay type: in vivo, Glycine max; conditions: for Plant response rating, Soybean: 0 to 10 scale
# Summary of the method: as §1
# sorghum = assay type: in vivo, Sorghum bicolor; conditions: for Plant response rating, Sorghum: 0 to 10 scale
# Summary of the method: as §1
# bedstraw = assay type: in vivo, Galium aparine; conditions: for Plant response rating, Bedstraw: 0 to 10 scale
# Summary of the method: as §1
# cocklebur = assay type: in vivo, Xanthium pensylvanicum; conditions: for Plant response rating, Cocklebur: 0 to 10 scale
# Summary of the method: as §1
# purple nutsedge = assay type: in vivo, Cyperus rotundus; conditions: for Plant response rating, Nutsedge: 0 to 10 scale
# Summary of the method: as §1
# lambsquarters = assay type: in vivo, Chenopodium album; conditions: for Plant response rating, Lambsquarter: 0 to 10 scale
# Summary of the method: as §1
# cheatgrass = assay type: in vivo, Bromus secalinus; conditions: for Plant response rating, Cheatgrass: 0 to 10 scale
# Summary of the method: as §1
# wild oat = assay type: in vivo, Avena fatua; conditions: for Plant response rating, Wild oat: 0 to 10 scale
# Summary of the method: as §1
# morningglory = assay type: in vivo, Ipomoea hederacea; conditions: for Plant response rating, Morningglory: 0 to 10 scale
# Summary of the method: as §1
# corn = assay type: in vivo, Zea mays; conditions: for Plant response rating, Corn: 0 to 10 scale
# Summary of the method: as §1
# crabgrass = assay type: in vivo, Digitaria spp.; conditions: for Plant response rating, Crabgrass: 0 to 10 scale
# Summary of the method: as §1
compound,measurement,setting,value
CC(C)(C)C(=O)COc1cc(-c2nn3c(c2Cl)CCCC3)c(Cl)cc1Cl [Compound 77],"Plant response rating, Barley","barley; POSTEMERGENCE, Rate 50 g/ha",2
same,"Plant response rating, Barley","barley; PREEMERGENCE, Rate 50 g/ha",0
same,"Plant response rating (0 to 10 scale), Barley","barley; PREEMERGENCE, Rate 200 g/ha",0
same,"Plant response rating, Barley","barley; Rate 200 g/ha, POSTEMERGENCE",3
same,"Plant response rating, Rape","rape; POSTEMERGENCE, Rate 50 g/ha",6
same,"Plant response rating, Rape","rape; PREEMERGENCE, Rate 50 g/ha",0
same,"Plant response rating (0 to 10 scale), Rape","rape; PREEMERGENCE, Rate 200 g/ha",6
same,"Plant response rating, Rape","rape; Rate 200 g/ha, POSTEMERGENCE",7
same,"Plant response rating, Sugar beet","sugar beet; POSTEMERGENCE, Rate 50 g/ha",10
same,"Plant response rating, Sugar beet","sugar beet; PREEMERGENCE, Rate 50 g/ha",3
same,"Plant response rating (0 to 10 scale), Sugar beet","sugar beet; PREEMERGENCE, Rate 200 g/ha",3
same,"Plant response rating, Sugar beet","sugar beet; Rate 200 g/ha, POSTEMERGENCE",10
same,"Plant response rating, Wheat","wheat; POSTEMERGENCE, Rate 50 g/ha",2
same,"Plant response rating, Wheat","wheat; PREEMERGENCE, Rate 50 g/ha",0
same,"Plant response rating (0 to 10 scale), Wheat","wheat; PREEMERGENCE, Rate 200 g/ha",0
same,"Plant response rating, Wheat","wheat; Rate 200 g/ha, POSTEMERGENCE",5
same,"Plant response rating, Barnyardgrass","barnyardgrass; POSTEMERGENCE, Rate 50 g/ha",4
same,"Plant response rating, Barnyardgrass","barnyardgrass; PREEMERGENCE, Rate 50 g/ha",0
same,"Plant response rating (0 to 10 scale), Barnyardgrass","barnyardgrass; PREEMERGENCE, Rate 200 g/ha",3
same,"Plant response rating, Barnyardgrass","barnyardgrass; Rate 200 g/ha, POSTEMERGENCE",8
same,"Plant response rating, Rice","rice; POSTEMERGENCE, Rate 50 g/ha",4
same,"Plant response rating, Rice","rice; PREEMERGENCE, Rate 50 g/ha",0
same,"Plant response rating (0 to 10 scale), Rice","rice; PREEMERGENCE, Rate 200 g/ha",0
same,"Plant response rating, Rice","rice; Rate 200 g/ha, POSTEMERGENCE",6
same,"Plant response rating, Chickweed","chickweed; POSTEMERGENCE, Rate 50 g/ha",2
same,"Plant response rating, Chickweed","chickweed; PREEMERGENCE, Rate 50 g/ha",0
same,"Plant response rating (0 to 10 scale), Chickweed","chickweed; PREEMERGENCE, Rate 200 g/ha",1
same,"Plant response rating, Chickweed","chickweed; Rate 200 g/ha, POSTEMERGENCE",3
same,"Plant response rating, Wild buckwheat","wild buckwheat; POSTEMERGENCE, Rate 50 g/ha",10
same,"Plant response rating, Wild buckwheat","wild buckwheat; PREEMERGENCE, Rate 50 g/ha",8
same,"Plant response rating (0 to 10 scale), Wild buckwheat","wild buckwheat; PREEMERGENCE, Rate 200 g/ha",9
same,"Plant response rating, Wild buckwheat","wild buckwheat; Rate 200 g/ha, POSTEMERGENCE",10
same,"Plant response rating, Velvetleaf","velvetleaf; POSTEMERGENCE, Rate 50 g/ha",10
same,"Plant response rating, Velvetleaf","velvetleaf; PREEMERGENCE, Rate 50 g/ha",3
same,"Plant response rating (0 to 10 scale), Velvetleaf","velvetleaf; PREEMERGENCE, Rate 200 g/ha",7
same,"Plant response rating, Velvetleaf","velvetleaf; Rate 200 g/ha, POSTEMERGENCE",10
same,"Plant response rating, Blackgrass","blackgrass; POSTEMERGENCE, Rate 50 g/ha",2
same,"Plant response rating, Blackgrass","blackgrass; PREEMERGENCE, Rate 50 g/ha",2
same,"Plant response rating (0 to 10 scale), Blackgrass","blackgrass; PREEMERGENCE, Rate 200 g/ha",3
same,"Plant response rating, Blackgrass","blackgrass; Rate 200 g/ha, POSTEMERGENCE",3
same,"Plant response rating, Giant foxtail","giant foxtail; POSTEMERGENCE, Rate 50 g/ha",5
same,"Plant response rating, Giant foxtail","giant foxtail; PREEMERGENCE, Rate 50 g/ha",2
same,"Plant response rating (0 to 10 scale), Giant foxtail","giant foxtail; PREEMERGENCE, Rate 200 g/ha",2
same,"Plant response rating, Giant foxtail","giant foxtail; Rate 200 g/ha, POSTEMERGENCE",6
same,"Plant response rating, Cotton","cotton; POSTEMERGENCE, Rate 50 g/ha",10
same,"Plant response rating, Cotton","cotton; PREEMERGENCE, Rate 50 g/ha",0
same,"Plant response rating (0 to 10 scale), Cotton","cotton; PREEMERGENCE, Rate 200 g/ha",0
same,"Plant response rating, Cotton","cotton; Rate 200 g/ha, POSTEMERGENCE",10
same,"Plant response rating, Soybean","soybean; POSTEMERGENCE, Rate 50 g/ha",5
same,"Plant response rating, Soybean","soybean; PREEMERGENCE, Rate 50 g/ha",0
same,"Plant response rating (0 to 10 scale), Soybean","soybean; PREEMERGENCE, Rate 200 g/ha",0
same,"Plant response rating, Soybean","soybean; Rate 200 g/ha, POSTEMERGENCE",7
same,"Plant response rating, Sorghum","sorghum; POSTEMERGENCE, Rate 50 g/ha",5
same,"Plant response rating, Sorghum","sorghum; PREEMERGENCE, Rate 50 g/ha",0
same,"Plant response rating (0 to 10 scale), Sorghum","sorghum; PREEMERGENCE, Rate 200 g/ha",0
same,"Plant response rating, Sorghum","sorghum; Rate 200 g/ha, POSTEMERGENCE",5
same,"Plant response rating, Bedstraw","bedstraw; POSTEMERGENCE, Rate 50 g/ha",4
same,"Plant response rating, Bedstraw","bedstraw; PREEMERGENCE, Rate 50 g/ha",3
same,"Plant response rating (0 to 10 scale), Bedstraw","bedstraw; PREEMERGENCE, Rate 200 g/ha",10
same,"Plant response rating, Bedstraw","bedstraw; Rate 200 g/ha, POSTEMERGENCE",5
same,"Plant response rating, Cocklebur","cocklebur; POSTEMERGENCE, Rate 50 g/ha",7
same,"Plant response rating, Cocklebur","cocklebur; PREEMERGENCE, Rate 50 g/ha",0
same,"Plant response rating (0 to 10 scale), Cocklebur","cocklebur; PREEMERGENCE, Rate 200 g/ha",1
same,"Plant response rating, Cocklebur","cocklebur; Rate 200 g/ha, POSTEMERGENCE",9
same,"Plant response rating, Nutsedge","purple nutsedge; POSTEMERGENCE, Rate 50 g/ha",2
same,"Plant response rating, Nutsedge","purple nutsedge; PREEMERGENCE, Rate 50 g/ha",0
same,"Plant response rating (0 to 10 scale), Nutsedge","purple nutsedge; PREEMERGENCE, Rate 200 g/ha",0
same,"Plant response rating, Nutsedge","purple nutsedge; Rate 200 g/ha, POSTEMERGENCE",2
same,"Plant response rating, Lambsquarter","lambsquarters; POSTEMERGENCE, Rate 50 g/ha",10
same,"Plant response rating, Lambsquarter","lambsquarters; PREEMERGENCE, Rate 50 g/ha",10
same,"Plant response rating (0 to 10 scale), Lambsquarter","lambsquarters; PREEMERGENCE, Rate 200 g/ha",10
same,"Plant response rating, Lambsquarter","lambsquarters; Rate 200 g/ha, POSTEMERGENCE",10
same,"Plant response rating, Cheatgrass","cheatgrass; POSTEMERGENCE, Rate 50 g/ha",2
same,"Plant response rating, Cheatgrass","cheatgrass; PREEMERGENCE, Rate 50 g/ha",3
same,"Plant response rating (0 to 10 scale), Cheatgrass","cheatgrass; PREEMERGENCE, Rate 200 g/ha",5
same,"Plant response rating, Cheatgrass","cheatgrass; Rate 200 g/ha, POSTEMERGENCE",3
same,"Plant response rating, Wild oat","wild oat; POSTEMERGENCE, Rate 50 g/ha",1
same,"Plant response rating, Wild oat","wild oat; PREEMERGENCE, Rate 50 g/ha",0
same,"Plant response rating (0 to 10 scale), Wild oat","wild oat; PREEMERGENCE, Rate 200 g/ha",0
same,"Plant response rating, Wild oat","wild oat; Rate 200 g/ha, POSTEMERGENCE",3
same,"Plant response rating, Morningglory","morningglory; POSTEMERGENCE, Rate 50 g/ha",8
same,"Plant response rating, Morningglory","morningglory; PREEMERGENCE, Rate 50 g/ha",0
same,"Plant response rating (0 to 10 scale), Morningglory","morningglory; PREEMERGENCE, Rate 200 g/ha",0
same,"Plant response rating, Morningglory","morningglory; Rate 200 g/ha, POSTEMERGENCE",9
same,"Plant response rating, Corn","corn; POSTEMERGENCE, Rate 50 g/ha",3
same,"Plant response rating, Corn","corn; PREEMERGENCE, Rate 50 g/ha",0
same,"Plant response rating (0 to 10 scale), Corn","corn; PREEMERGENCE, Rate 200 g/ha",0
same,"Plant response rating, Corn","corn; Rate 200 g/ha, POSTEMERGENCE",3
same,"Plant response rating, Crabgrass","crabgrass; POSTEMERGENCE, Rate 50 g/ha",5
same,"Plant response rating, Crabgrass","crabgrass; PREEMERGENCE, Rate 50 g/ha",2
same,"Plant response rating (0 to 10 scale), Crabgrass","crabgrass; PREEMERGENCE, Rate 200 g/ha",3
same,"Plant response rating, Crabgrass","crabgrass; Rate 200 g/ha, POSTEMERGENCE",6
